According to paper PMC9879287 (Current research in chemical biology, 2022):
Values belong to the compound of their own block, whether it stands above or below them.

What was measured:
[1] = target: BTK (Homo sapiens, UniProt Q06187); assay: Western blotting for BTK in Mino cells; assay type: cell-based; conditions: 24 h; for BTK degradation in Mino cells: Western blotting
[2] = target: BTK-nLuc fusion protein (Homo sapiens, UniProt Q06187+Q96SW2); assay: BTK-nLuc endpoint degradation assay; assay type: cell-based; conditions: HEK-293T cells stably expressing BTK-nLuc, 24 h
BTK-nLuc fusion protein, sequence (Q06187 whole entry, the tested form may be a part): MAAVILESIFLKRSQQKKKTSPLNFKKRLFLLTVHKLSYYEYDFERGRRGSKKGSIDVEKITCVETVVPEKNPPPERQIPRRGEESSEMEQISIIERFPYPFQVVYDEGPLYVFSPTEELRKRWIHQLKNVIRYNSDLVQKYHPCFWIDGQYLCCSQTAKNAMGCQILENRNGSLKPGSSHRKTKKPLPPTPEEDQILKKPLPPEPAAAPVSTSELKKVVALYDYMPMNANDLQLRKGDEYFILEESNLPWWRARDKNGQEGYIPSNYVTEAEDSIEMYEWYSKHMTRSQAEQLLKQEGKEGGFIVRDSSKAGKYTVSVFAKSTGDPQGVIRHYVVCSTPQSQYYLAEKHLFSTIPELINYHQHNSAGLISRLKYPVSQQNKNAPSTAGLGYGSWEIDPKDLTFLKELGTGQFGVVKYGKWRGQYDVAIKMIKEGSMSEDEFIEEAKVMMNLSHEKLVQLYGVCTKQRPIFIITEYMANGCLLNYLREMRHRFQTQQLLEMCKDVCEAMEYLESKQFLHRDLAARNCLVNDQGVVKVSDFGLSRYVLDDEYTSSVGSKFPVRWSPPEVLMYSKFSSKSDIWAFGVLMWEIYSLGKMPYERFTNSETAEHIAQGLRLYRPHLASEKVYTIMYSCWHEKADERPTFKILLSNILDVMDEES
BTK-nLuc fusion protein, sequence (Q96SW2 whole entry, the tested form may be a part): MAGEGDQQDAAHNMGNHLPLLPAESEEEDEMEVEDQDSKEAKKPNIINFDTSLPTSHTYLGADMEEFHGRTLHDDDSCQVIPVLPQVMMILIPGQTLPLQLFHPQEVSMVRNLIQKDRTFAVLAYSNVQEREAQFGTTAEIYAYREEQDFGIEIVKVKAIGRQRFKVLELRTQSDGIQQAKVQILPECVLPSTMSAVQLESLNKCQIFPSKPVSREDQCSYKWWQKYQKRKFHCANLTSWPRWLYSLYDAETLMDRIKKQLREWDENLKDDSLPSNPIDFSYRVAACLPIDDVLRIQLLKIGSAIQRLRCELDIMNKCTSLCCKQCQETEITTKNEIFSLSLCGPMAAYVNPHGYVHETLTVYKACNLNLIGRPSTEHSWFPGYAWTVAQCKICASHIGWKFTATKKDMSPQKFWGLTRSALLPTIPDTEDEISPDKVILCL
BTK-nLuc fusion protein, sequence (Q16531 whole entry partner, the tested form may be a part): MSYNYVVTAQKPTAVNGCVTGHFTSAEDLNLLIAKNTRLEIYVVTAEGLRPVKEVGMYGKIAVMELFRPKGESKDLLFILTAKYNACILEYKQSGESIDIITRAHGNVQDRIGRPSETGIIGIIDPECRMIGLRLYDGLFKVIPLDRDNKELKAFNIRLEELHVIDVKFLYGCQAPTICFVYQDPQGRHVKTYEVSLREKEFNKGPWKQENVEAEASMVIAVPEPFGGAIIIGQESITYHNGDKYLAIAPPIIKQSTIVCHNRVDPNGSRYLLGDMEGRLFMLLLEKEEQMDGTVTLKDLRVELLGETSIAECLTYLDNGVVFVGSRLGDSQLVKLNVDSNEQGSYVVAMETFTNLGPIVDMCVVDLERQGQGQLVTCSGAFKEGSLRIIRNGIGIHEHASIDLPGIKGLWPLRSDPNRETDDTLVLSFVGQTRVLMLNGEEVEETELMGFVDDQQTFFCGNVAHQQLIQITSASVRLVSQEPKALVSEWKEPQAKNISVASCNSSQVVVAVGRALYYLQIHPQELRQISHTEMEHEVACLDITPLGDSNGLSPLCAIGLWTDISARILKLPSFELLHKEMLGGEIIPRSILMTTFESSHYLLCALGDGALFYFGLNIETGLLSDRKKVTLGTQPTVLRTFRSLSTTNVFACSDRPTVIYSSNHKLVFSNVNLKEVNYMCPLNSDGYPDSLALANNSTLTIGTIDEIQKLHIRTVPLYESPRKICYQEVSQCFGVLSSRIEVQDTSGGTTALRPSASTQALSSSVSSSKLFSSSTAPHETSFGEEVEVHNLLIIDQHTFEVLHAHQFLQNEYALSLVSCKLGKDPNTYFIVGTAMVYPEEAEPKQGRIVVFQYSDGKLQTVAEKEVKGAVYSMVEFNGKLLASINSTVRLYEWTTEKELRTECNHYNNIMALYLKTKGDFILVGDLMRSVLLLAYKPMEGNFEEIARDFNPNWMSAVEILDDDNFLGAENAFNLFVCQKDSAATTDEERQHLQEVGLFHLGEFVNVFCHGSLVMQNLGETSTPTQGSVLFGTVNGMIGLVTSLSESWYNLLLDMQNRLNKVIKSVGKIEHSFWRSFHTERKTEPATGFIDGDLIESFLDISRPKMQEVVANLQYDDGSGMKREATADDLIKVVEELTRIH

[3] = target: IKZF3 (Homo sapiens, UniProt Q96SW2+Q9UKT9); assay: Western blotting for IKZF3 in Mino cells; assay type: cell-based; conditions: at 40 nM; assay not given
IKZF3, sequence (Q9UKT9 whole entry): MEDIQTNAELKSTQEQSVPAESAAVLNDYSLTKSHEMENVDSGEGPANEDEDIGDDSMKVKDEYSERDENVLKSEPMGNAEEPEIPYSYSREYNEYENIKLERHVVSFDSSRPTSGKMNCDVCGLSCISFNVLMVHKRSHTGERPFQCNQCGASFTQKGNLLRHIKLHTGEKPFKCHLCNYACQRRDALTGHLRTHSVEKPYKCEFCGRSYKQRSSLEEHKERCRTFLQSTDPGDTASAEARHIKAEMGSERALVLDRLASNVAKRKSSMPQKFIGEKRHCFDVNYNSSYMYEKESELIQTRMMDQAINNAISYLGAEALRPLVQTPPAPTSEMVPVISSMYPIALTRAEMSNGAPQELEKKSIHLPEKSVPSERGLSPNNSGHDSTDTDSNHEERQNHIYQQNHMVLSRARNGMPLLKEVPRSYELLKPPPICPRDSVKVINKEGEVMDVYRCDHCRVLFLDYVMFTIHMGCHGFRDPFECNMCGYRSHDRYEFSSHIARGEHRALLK
IKZF3, sequence (Q96SW2 whole entry): as the sequence (Q96SW2 whole entry, the tested form may be a part) above
IKZF3, sequence (Q16531 whole entry partner): as the sequence (Q16531 whole entry partner, the tested form may be a part) above

[4] = target: IKZF1 (Homo sapiens, UniProt Q13422+Q96SW2); assay: Western blotting for IKZF1 in Mino cells; assay type: cell-based; conditions: at 200 nM; assay not given
IKZF1, sequence (Q13422 whole entry): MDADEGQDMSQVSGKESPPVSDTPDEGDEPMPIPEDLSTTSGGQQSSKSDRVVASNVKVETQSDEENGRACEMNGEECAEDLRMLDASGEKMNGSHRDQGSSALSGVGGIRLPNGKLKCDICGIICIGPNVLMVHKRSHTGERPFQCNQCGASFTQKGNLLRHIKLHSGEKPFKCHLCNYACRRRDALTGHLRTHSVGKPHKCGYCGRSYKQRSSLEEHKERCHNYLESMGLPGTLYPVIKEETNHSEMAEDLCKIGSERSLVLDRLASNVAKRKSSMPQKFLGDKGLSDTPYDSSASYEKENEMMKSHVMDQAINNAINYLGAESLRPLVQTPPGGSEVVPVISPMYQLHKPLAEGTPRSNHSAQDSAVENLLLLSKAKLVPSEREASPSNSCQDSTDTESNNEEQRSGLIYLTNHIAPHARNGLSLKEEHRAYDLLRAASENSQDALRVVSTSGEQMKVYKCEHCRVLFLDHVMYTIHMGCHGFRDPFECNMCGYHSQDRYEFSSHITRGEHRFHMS
IKZF1, sequence (Q96SW2 whole entry): as the sequence (Q96SW2 whole entry, the tested form may be a part) above
IKZF1, sequence (Q16531 whole entry partner): as the sequence (Q16531 whole entry partner, the tested form may be a part) above

[5] = target: T1, IKZF3-nLuc (Homo sapiens, UniProt Q96SW2+Q9UKT9); assay type: cell-based
T1 sequence (Q9UKT9 whole entry): as the sequence (Q9UKT9 whole entry) above
T1 sequence (Q96SW2 whole entry): as the sequence (Q96SW2 whole entry, the tested form may be a part) above
T1 sequence (Q16531 whole entry partner): as the sequence (Q16531 whole entry partner, the tested form may be a part) above

[6] = target: T1, IKZF3-nLuc; conditions: other cell line
[7] = system: Rec-R cells; assay: Alarma Blue cell viability assay, Rec-R; assay type: cell-based
[8] = target: IKZF1-nLuc (Homo sapiens, UniProt Q13422+Q96SW2); conditions: other cell line
IKZF1-nLuc, sequence (Q13422 whole entry): as the sequence (Q13422 whole entry) above
IKZF1-nLuc, sequence (Q96SW2 whole entry): as the sequence (Q96SW2 whole entry, the tested form may be a part) above
IKZF1-nLuc, sequence (Q16531 whole entry partner): as the sequence (Q16531 whole entry partner, the tested form may be a part) above

[9] = system: Mino cells; assay: cells; assay type: cell-based; conditions: Homo sapiens, read-out: Mino IC50
[10] = system: Jeko-1 cells; assay: Alarma Blue cell viability assay, Jeko-1; assay type: cell-based
[11] = target: His-BTK (Homo sapiens, UniProt Q06187); assay: TR-FRET competition binding assay with BTK-BODIPY tracer; conditions: 2 h incubation, 150 nM tracer, 2 nM His-BTK
His-BTK, sequence (Q06187 whole entry): as the sequence (Q06187 whole entry, the tested form may be a part) above

[12] = system: MOLM14 cells; assay: Alarma Blue cell viability assay, MOLM14; assay type: cell-based; conditions: Homo sapiens, MOLM-14, 72 h, read-out: MOLM14 IC50

BTK, sequence (Q06187 whole entry, the tested form may be a part): as above

SMILES: O=C1CC[C@H](N2Cc3c(OCc4ccc(CN5CCOCC5)cc4)cccc3C2=O)C(=O)N1 [CC220]
BTK degradation in Mino cells [1]: In contrast to PS-1, PS-3 and CC-220, PS-2 potently induces BTK degradation

SMILES: Cc1c(NC(=O)c2ccc(C(C)(C)C)cc2)cccc1-c1cn(C)c(=O)c(Nc2ccc(C(=O)N3CCN(CCCCCCNC(=O)CNc4cccc5c4C(=O)N(C4CCC(=O)NC4=O)C5=O)CC3)cc2)n1 (centres unmarked) [DD-03-171]
BTK WB Dmax ([1]; Mino cells): 99%
BTK degradation in Mino cells [1]: potently induces BTK degradation
BTK-nLuc Dmax [2]: 96%
DC50 ([2]; read-out: BTK-nLuc DC50): 25.9 nM

SMILES: Nc1cccc2c1C(=O)N(C1CCC(=O)NC1=O)C2=O (centres unmarked) [Pomalidomide, pomalidomide]
IKZF3 degradation half-life [6]: 1.9 h
response of Rec-R cells [7]: only Mino cells are responsive
IKZF1 degradation half-life [8]: 4.9 h
IC50 [9]: 329 nM
response of Jeko-1 cells [10]: only Mino cells are responsive

SMILES: C=CC(=O)Nc1cccc(Oc2nc(Nc3ccc(N4CCN(C)CC4)cc3)nc3ccoc23)c1 [Poseltinib, poseltinib]
IC50 [11]: 1.21 nM
IC50 [12]: 2900 nM

Further lines, results first:

IKZF3 degradation [3]: do not degrade IKZF3
IKZF1 degradation [4]: substantial IKZF1 degradation
SMILES: Nc1ccc(N2CCN(C(=O)CNc3cccc4c3C(=O)N(C3CCC(=O)NC3=O)C4=O)CC2)cc1 (centres unmarked) [PS-4]

IKZF3 degradation [3]: do not degrade IKZF3
IKZF3 degradation in the nLuc assay [5]: appear to be potent IKZF3 degraders
IKZF1 degradation [4]: less potent
SMILES: CN1CCN(C(=O)CNc2cccc3c2C(=O)N(C2CCC(=O)NC2=O)C3=O)CC1 (centres unmarked) [PS-5]
